{
  "source": "patent US4575498A",
  "about": "“Method for restoring depleted purine nucleotide pools” (priority 1983, dated 1986)",
  "system": "cardiac and skeletal muscle",
  "test": "Creatine phosphate content of cardiac and skeletal muscle",
  "format": "in vivo, mongrel dogs",
  "conditions": "throughout the study (6.8±0.4 and 10.6±0.5 μmol/g at beginning)",
  "experimental": "Animal Preparation--Seven adult mongrel dogs were anesthetized intramuscularly with 40 mg of morphine sulfate and intravenously with 80 mg/kg of chloralose, an endotraceal tube was inserted, and ventilation was maintained with an Emerson volume-cycled respirator and 100% oxygen. The heart was exposed through a left lateral thoracotomy, polyvinyl chloride catheters (3-mm outer diameter) were inserted into the left atrium and into the aorta through the right femoral artery, and a Statham TTQ electromagnetic flow meter probe was positioned around the ascending aorta. The aortic pressure catheter was connected to a Statham P23Db transducer (Statham Instruments, Inc., Oxnard, CA) with the zero reference at the midchest level. Aortic flow was measured with a Howell Instruments Series 1000 Flowmeter, and stroke volume and cardiac output were calculated from the aortic flow measurement. All hemodynamic data were monitored continuously throughout the course of the study. […]\nAfter hemodynamic parameters had stabilized, regional myocardial blood flow was measured by injecting radioactively labled microspheres. […] Venous and arterial blood samples were also obtained at 42 min. of infusion, and regional myocardial blood flow was measured at 10 and 39 min. of AICAriboside infusion. […]",
  "data": [
    {"smiles": "NC(=O)c1ncn([C@@H]2O[C@H](CO)[C@@H](O)[C@H]2O)c1N", "note": "[AICAriboside, 5-amino-4-imidazolecarboxamide riboside]", "values": [
      {"measurement": "creatine phosphate content", "result": "did not vary significantly"}
    ]}
  ]
}
